In article PMC6934184, “Selective DNA-PKcs inhibition extends the therapeutic index of localized radiotherapy and chemotherapy” (The Journal of Clinical Investigation, 2019) one finds inhibition data, which are given here for 1 compound.

The inhibition is the drop in the measured response relative to a control, in per cent. A lower inhibition goes with a weak effect.

For this assay, the target named is T1, EPHB3 (Homo sapiens, UniProt P54753).
T1 construct: purchased Thermo Fisher Scientific (Life Technologies) SelectScreen
The experiment in a line: SelectScreen Z'LYTE. It counts as biochemical. An outline of the steps: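 SelectScreen broad panel; activity (Z'LYTE, Adapta) plus binding formats. ATP: Km app for CSF1R Z'LYTE; 10 for CAMK1 Adapta. Readout = % per kinase.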

Each structure is given as a SMILES string.

T1 sequence (P54753 34-998): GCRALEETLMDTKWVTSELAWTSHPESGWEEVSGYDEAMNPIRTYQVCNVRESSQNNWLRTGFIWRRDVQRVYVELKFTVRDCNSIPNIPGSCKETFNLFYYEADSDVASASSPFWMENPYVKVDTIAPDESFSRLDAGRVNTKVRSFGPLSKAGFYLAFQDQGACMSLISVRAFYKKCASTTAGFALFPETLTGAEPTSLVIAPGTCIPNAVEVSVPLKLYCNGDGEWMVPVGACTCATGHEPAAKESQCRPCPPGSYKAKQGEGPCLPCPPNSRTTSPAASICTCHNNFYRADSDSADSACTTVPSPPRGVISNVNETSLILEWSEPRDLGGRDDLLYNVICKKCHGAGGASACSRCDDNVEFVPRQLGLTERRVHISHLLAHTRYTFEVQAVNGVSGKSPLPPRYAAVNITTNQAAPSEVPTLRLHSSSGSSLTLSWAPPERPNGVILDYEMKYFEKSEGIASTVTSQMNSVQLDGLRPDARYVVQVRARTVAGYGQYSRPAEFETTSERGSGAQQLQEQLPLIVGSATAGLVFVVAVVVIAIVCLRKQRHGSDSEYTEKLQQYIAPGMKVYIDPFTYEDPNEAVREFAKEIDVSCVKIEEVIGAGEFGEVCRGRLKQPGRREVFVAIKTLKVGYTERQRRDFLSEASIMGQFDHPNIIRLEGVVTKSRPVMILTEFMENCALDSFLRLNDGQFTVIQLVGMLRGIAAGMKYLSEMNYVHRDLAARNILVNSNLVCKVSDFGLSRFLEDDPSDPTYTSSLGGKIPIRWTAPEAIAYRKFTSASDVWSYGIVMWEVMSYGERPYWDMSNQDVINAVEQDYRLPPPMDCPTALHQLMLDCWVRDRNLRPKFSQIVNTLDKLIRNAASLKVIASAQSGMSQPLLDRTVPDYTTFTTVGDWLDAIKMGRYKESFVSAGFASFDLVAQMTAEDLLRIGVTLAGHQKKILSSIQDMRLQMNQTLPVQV

With `CN(C(=O)CN1CCOCC1)c1ccc2sc3c(-c4cccc5c(=O)cc(N6CC7CCC(C6)O7)oc45)cccc3c2c1` [NU5455], 1 µM produced 1.1% inhibition.
